In patent publication US11518785B2, “Peptide showing melanogenesis promoting activity and use thereof” (CAREGEN CO., LTD., priority 2017, dated 2022):
Values joined by “and” are separate entries in the source; they are usually repeats but may differ in a detail not shown here. Identical values can stand only once.

Columns and labels:
Type in all cases: cell-based, mouse
[1] = tested on: tyrosinase in melanoma cell line (B16F10) cells; assay: Tyrosinase activity assay in lysates of treated cells (L-DOPA); conditions: for Tyrosinase activity (%): B16F10, 72 hours, control group = 100; for tyrosinase activity: mouse melanin cell line B16F10 treated with the peptide, result in words
Protocol: Melanoma cell line (B16F10) cells were cultured in 6-well culture plates for 24 hours, and treated with the peptide with different concentrations, followed by culture for 72 hours. The 6-well culture plates were loaded on ice and washed with cool PBS, and then 300 μl of 0.1 M sodium phosphate buffer (pH 6.8, lysis buffer) containing 1% Triton X-100 was added. The cells were collected in 1.5-ml tubes, and then cell membranes were disrupted by repeating five times rapid-freezing at […] and thawing. After centrifugation at 15,000 rpm for 10 minutes, the supernatant was collected in other 1.5-mL tubes, and the protein of the samples was quantified. The samples were diluted to have the same protein concentration and then dispensed in every three wells in 96-well culture plates, and then 20 μl of 10 mM L-DOPA was added, followed by incubation at 37° C. for 1 hour The blank and positive control were as shown in Table 5.
Then, the absorbance was measured at 475 nm, and the results are shown in FIGS. 2, 7, and 12, and Tables 6 to 8.

[2] = tested on: MITF and tyrosinase protein in B16F10 cell line; assay: Western blotting of melanogenesis-related proteins; conditions: B16F10 treated with the peptide, 72-hour incubation, result in words
Protocol: Melanocytes (B16F10 cell line) were seeded on 6-well culture plates at the density of 5×10^4 cells/well and incubated in an incubator for 24 hours, and the cells were treated with the peptides of the present invention with different concentrations. After 72-hour incubation, the cells were lysed, and the cells were subjected to western blotting using antibodies (antacruz biotechnology, USA) each specific to MITF and tyrosinase, which are the factors involved in melanogenesis.

[3] = tested on: CREB phosphorylation in B16F10 cell line; assay: Melanogenesis-related protein activity assay (CREB phosphorylation, western blotting); conditions: B16F10 treated with the peptide, 48-hour incubation, result in words
Protocol: Melanocytes (B16F10 cell line) were seeded on 6-well culture plates at the density of 5×10^4 cells/well and incubated in an incubator for 24 hours, and the cells were treated with the peptides of the present invention with different concentrations. After 48-hour incubation, the cells were lysed, and the cells were subjected to western blotting using specific antibodies (Cell Signaling Technology, USA) to investigate the phosphorylation level of CREB, which is a signaling substance involved in melanogenesis.

[4] = tested on: tyrosinase mRNA in B16F10 cell line; assay: RT-PCR of melanogenesis-related genes: tyrosinase; conditions: B16F10 treated with the peptide, 72 hours, result in words
Protocol: (§1) Melanocytes (B16F10 cell line) were seeded on 6-well culture plates at the density of 5×10^4 cells/well and incubated in an incubator for 24 hours. Then, the medium was replaced with […], and the cells were treated with the peptides of the present invention with different concentrations and cultured for 72 hours. Next, after RNA extraction of cells and quantification, cDNA was synthesized by using the cDNA synthesis kit (Intron, Korea). […] Then, degrees of mRNA expression of the growth factors under each sample treatment conditions were compared by running the resultants on a 5% agarose gel, and the results are shown in FIGS. 3, 8, and 13.

[5] = tested on: MITF mRNA in B16F10 cell line; assay: RT-PCR of melanogenesis-related genes: MITF; conditions: B16F10 treated with the peptide, 72 hours, result in words
Protocol: as §1

[6] = tested on: TRP1 mRNA in B16F10 cell line; assay: RT-PCR of melanogenesis-related genes: TRP1; conditions: B16F10 treated with the peptide, 72 hours, result in words
Protocol: as §1

[7] = tested on: melanocytes (B16F10 cell line); assay: Melanogenesis assay (melanin content); conditions: for Melanin content (%): B16F10, 72 hours, control group = 100; for melanogenesis: mouse melanin cell line B16F10 treated with the peptide, result in words
Protocol: After seeding melanocytes (B16F10 cell line) in 6-well plates at the density of 5×10^4 cells/well, the melanocytes were cultured in an incubator at a temperature of 37° C. for 24 hours, and the medium of each plate was removed and replaced with 2% serum-containing media, followed by treatment with the present peptide at different concentrations and then incubation of 72 hours.
Then, the culture medium was removed, and the cells were taken off and then transferred into 1.5-ml tubes, followed by centrifugation at 13,000 rpm for 3 minutes to remove the supernatant. Next, cell pellets were collected to observe melanin. 150 μl of 1 N NaOH was added to the cell pellets to lyse intracellular melanin at a temperature of 60° C. for 30 minutes.

Substance	Tyrosinase activity (%) ([1]; 10 μM peptide)	Tyrosinase activity (%) ([1]; 50 μM peptide)	tyrosinase activity [1]	protein expression involved in the process of melanogenesis (MITF, tyrosinase) [2]	phosphorylation level of CREB [3]	mRNA expression of tyrosinase [4]	mRNA expression of MITF [5]	mRNA expression of TRP1 [6]	Melanin content (%) ([7]; 10 μM peptide)	Melanin content (%) ([7]; 50 μM peptide)	melanogenesis [7]	Tyrosinase activity (%) ([1]; 200 nM a-MSH)
FCLGPCPYIWSL [SEQ ID NO: 1]	157	201	increased	increased	increased	increased	increased	increased	125	264	increased	
KVTAMRCFLL [SEQ ID NO: 2]	144	189	increased	increased	increased	increased	increased	increased	109	155	increased	
RVTAMRCFLL [SEQ ID NO: 3]	114	173	increased	increased	increased	increased	increased	increased	106	164	increased	
α-melanocyte stimulating hormone [a-MSH, reference compound]												467% and 484%
